Test results as given in US20240207216A1, “COMPOSITIONS AND METHOD FOR TREATING GUT PERMEABILITY CAUSED BY HYDROGEN SULFIDE PRODUCING BACTERIA” (UNM RAINFOREST INNOVATIONS, priority 2022, published 2024).
Values belong to the compound of their own block, whether it stands above or below them.

Key:
iNOS = assay: DSV-induced iNOS expression, Western blot in RAW cells; type: cell-based, murine; settings: 200 μM, 3 h before DSV 4 h; DSV alone 30.25±6.82
Protocol: (§1) RAW 264.7 murine macrophage-like cells were grown in DMEM+10% FBS without any use of antibiotics or antimycotics. Cells were grown at 37° C. in a humidified incubator with 5% CO2. Prior to the day of infection, 8×10^5 cells were plated in a six-well plate and infected with DSV at multiplicity of infection 20 (MOI 20) for various times. For drug treatments, cells were incubated with LY294002 at 10 μM or 50 μM for one hour followed by DSV infection for 30 minutes or four hours. For TL2-C29 treatment, cells were incubated with the inhibitor at 200 μM for three hours followed by infection with DSV for four hours.
(§2) Cells were lysed in Lysis buffer containing protease and phosphatase inhibitors (Thermo Fisher Scientific, Inc., Waltham, MA) for 20 minutes at 4° C. Lysates were centrifuged at 12,000 rpm for five mins at 4° C. and supernatants were collected. Protein concentration in the supernatants was determined with Bradford reagent (Bio-Rad Laboratories, Inc., Hercules, CA). 50 μg of protein samples were run on SDS-PAGE (4-20% tris-glycine) and transferred to nitrocellulose membranes. Membranes were blocked in 5% milk in PBS-T (0.1% Tween 20) for 30 minutes followed by overnight incubation in primary antibodies in cold room. All antibodies except iNOS were purchased from Cell Signaling Technology (Danvers, MA): Actin (4970), p-AktS473(4060), p-Akt T308(13038), Akt (9272), p-P70S6K (9205), P70S6K (2708, TNF-α (19948). iNOS antibody was purchased from Abcam (Cambridge United Kingdom). Antibodies were diluted as recommended by the manufacturer. The following day, blots were washed with PBS-T and incubated with secondary antibodies (Cell Signaling Technology, Danvers, MA) at room temperature for one hour (dilution of 1:2000) and developed using enhanced chemiluminescence HRP signal (Thermo Fisher Scientific, Inc., Waltham, MA).
(§3) All graphs were generated using PRISM 9.4.1 GraphPad Software Inc., San Diego, CA). Data is plotted as Mean±SEM relative to control. Each experiment was conducted at least three independent times. […]

secreted TNF-α = assay: DSV-induced secreted TNF-α, Western blot of RAW cell culture supernatant; type: cell-based, murine; settings: 200 μM, 3 h before DSV 4 h; DSV alone 38.09±5.188
Protocol: FIG. 12. LY294002 inhibits DSV-induced activation of PI3K/Akt/TNF pathway. (A) RAW cells were treated with LY at either 10 μM or 50 μM for one hour before infection with DSV for four hours. Cells were lysed and protein lysate was prepared. Fifty μg of protein lysate was separated on SDS-PAGE and analyzed for p-Akt, Akt, TNF, iNOS, p-p70S6K, and total p70S6K by Western blotting. Actin was used as a loading control. (B) Quantification of p-Akt-Akt Western blot. (C) Quantification of p-P70/P70 Western blot. (D) Quantification of TNF-α/actin Western blot. (E) Post-infection, RAW cell culture supernatant was collected and proteins were precipitated using ethanol precipitation. Proteins were resuspended in PBS and 50 μg of proteins were loaded on SDS-PAGE and secreted TNF-α was detected using TNF-α antibody. Actin was used as a loading control.
as §1
Cells were lysed in Lysis buffer containing protease and phosphatase inhibitors (Thermo Fisher Scientific, Inc., Waltham, MA) for 20 minutes at 4° C. Lysates were centrifuged at 12,000 rpm for five mins at 4° C. and supernatants were collected. Protein concentration in the supernatants was determined with Bradford reagent (Bio-Rad Laboratories, Inc., Hercules, CA). 50 μg of protein samples were run on SDS-PAGE (4-20% tris-glycine) and transferred to nitrocellulose membranes. Membranes were blocked in 5% milk in PBS-T (0.1% Tween 20) for 30 minutes followed by overnight incubation in primary antibodies in cold room. […]

p-Akt/Akt = assay: DSV-induced Akt phosphorylation, Western blot in RAW cells; type: cell-based, murine; settings: 200 μM, 3 h before DSV 4 h; DSV alone 3.18±0.30
Protocol: as §1, §2, §3

TNF-α = assay: DSV-induced cellular TNF-α expression, Western blot in RAW cells; type: cell-based, murine; settings: 200 μM, 3 h before DSV 4 h; DSV alone 24.67±2.51
Protocol: as §1, §2, §3

Snail = assay: DSV-induced Snail protein expression by Western blot; type: cell-based, Human; settings: 100 nM, 2 h before DSV MOI 20 for 24 h; DSV alone 7.14±0.73
Protocol: FIG. 16. Rapamycin reduces DSV-induced Snail protein expression. Polarized Caco-2 cells were treated with 100 nM rapamycin for two hours, followed by DSV infection (MOI 20) for 24 hours. Cells were harvested and lysed. (A) Protein lysate was analyzed for Snail expression by Western blotting. (B) Quantitation of Snail expression from Western blot in (A). DSV: 7.14±0.73; DSV+Rapamycin: 3.10±0.74, **p<0.01.
Human colonic epithelial cells Caco-2 were purchased from the American Type Culture Collection (ATCC, Manassas, VA). Cells were grown in DMEM+20% FBS+penicillin and streptomycin (Thermo Fisher Scientific, Inc., Waltham, MA). Cells were grown at 37° C. in a humidified incubator with 5% CO2. To allow polarization and differentiation, cells were seeded at a density of 5×10^3 cells/well in 12-well 0.4 μm trans-well inserts for three weeks. Twenty-four hours before infection, growth medium was replaced with colorless medium (DMEM+20^0/o FBS) without antibiotics. […]
Cells were lysed in lysis buffer (Thermo Fisher Scientific, Inc., Waltham, MA; catalog #87787) containing protease and phosphatase inhibitors (Thermo Fisher Scientific, Inc., Waltham, MA; catalog #1861281) for 20 minutes at 4° C. with shaking. […] Protein concentration in the supernatants was determined with Bradford reagent (Bio-Rad Laboratories, Inc., Hercules, CA). […]

PI3K/Akt pathway = assay: DSV-induced PI3K/Akt signaling with receptor antagonists; type: cell-based, murine; settings: pretreatment of cells before DSV
Protocol: PI3k/Akt pathway is activated downstream of receptors such as RTKs and G-protein coupled receptors and also by TLRs activation which is often observed in the case of infections with various bacteria. Thus, cells were treated with different TLR antagonists to check for the involvement of TLR 2, TLR 4, or TLR 5 in DSV-mediated activation of PI3K/Akt pathway. […] DSV-induced phosphorylation of AKT was inhibited by C29 (DSV:3.18±0.30; DSV+C29: 1.58±0.29, p<0.05, FIG. 14, FIG. 15A). […] PI3K/Akt is classically activated by a vast number of stimuli through receptor tyrosine kinases (RTK). Thus, tryphostin AS1478, a common tyrosine kinase inhibitor, was used as an antagonist to EGFR signaling to test whether DSV-induced PI3k/Akt/TNF/iNOS pathway was dependent on RTK-mediated signaling.

[1] = test system: sulfate reducing bacteria; settings: batch culture; cited from earlier work

SMILES: COc1cccc(C=Nc2cccc(C(=O)O)c2C)c1O [C29]
iNOS protein expression, normalized to control (iNOS): 2.32±1.48 | secreted TNF-α, normalized to control (secreted TNF-α): 1.103±0.03408 | p-Akt/Akt, normalized to control (p-Akt/Akt): 1.58±0.29 | cellular TNF-α protein, normalized to control (TNF-α): 8.57±2.81

SMILES: CO[C@H]1C[C@@H]2CC[C@@H](C)[C@@](O)(O2)C(=O)C(=O)N2CCCC[C@H]2C(=O)O[C@H]([C@H](C)C[C@@H]2CC[C@@H](O)[C@H](OC)C2)CC(=O)[C@H](C)/C=C(\C)[C@@H](O)[C@@H](OC)C(=O)[C@H](C)C[C@H](C)/C=C/C=C/C=C/1C [Rapamycin, rapamycin]
Snail expression from Western blot (Snail): 3.10±0.74

SMILES: c1ccc(Cn2c(Sc3ncnc4c3sc3ncccc34)nnc2-c2ccncc2)cc1 [TH1020]
effect on DSV-induced PI3K/Akt signaling (PI3K/Akt pathway): Neither TLR4 antagonist TLR-IN-C34 nor TLR5 antagonist TH1020 had any discernable effect

SMILES: CC(=O)N[C@H]1[C@@H](OC(C)C)O[C@H](COC(C)=O)[C@@H](OC(C)=O)[C@@H]1OC(C)=O [TLR-IN-C34]
effect on DSV-induced PI3K/Akt signaling (PI3K/Akt pathway): Neither TLR4 antagonist TLR-IN-C34 nor TLR5 antagonist TH1020 had any discernable effect

SMILES: [Mg+2].[O-][O-] [magnesium peroxide (MgO2), magnesium peroxide]
number of sulfate reducing bacteria [1]: inhibited | sulfate reducing rate (SRR) [1]: inhibited | sulfide concentration [1]: inhibited

effect on DSV-induced PI3K/Akt signaling (PI3K/Akt pathway): No inhibition
SMILES: COc1cc2ncnc(Nc3cccc(Cl)c3)c2cc1OC [tryphostin AS1478]
